Columns and labels:
[1] = test system: patients with interstitial lung disease and pulmonary hypertension; experiment: Exacerbations of underlying lung disease, 16-week placebo-controlled trial of inhaled treprostinil (INCREASE); assay type: in vivo, human
Experimental: (§1) Subjects having underlying lung disease were treated with inhaled treprostinil over 16 weeks. Subjects initiated inhaled treprostinil or placebo at a dose of 3 breaths (18 mcg) 4 times daily (during waking hours). Study drug doses were maximized throughout the study. Dose escalations (additional 1 breath 4 times daily) could occur up to every 3 days with a target dosing regimen of 9 breaths (54 mcg) 4 times daily and a maximum dose of 12 breaths (72 mcg) 4 times daily, as clinically tolerated. Subjects were assessed during Screening and Baseline to determine eligibility for the study. Once eligible, 5 Treatment Phase visits to the clinic were required at Week 4, Week 8, Week 12, Week 15, and Week 16 (final study visit). An Early Termination (ET) Visit was conducted for subjects who discontinued prior to Week 16; all assessments planned for the final Week 16 Visit were conducted during the ET Visit, if applicable. Subjects were contacted at least weekly by telephone or email to assess tolerance to study drug, adverse events (AEs), and changes to concomitant medications.

[2] = test system: patients with interstitial lung disease and pulmonary hypertension; experiment: Pulmonary function tests (FVC, FEV1, TLC, DLCO), mixed model repeated measurement, INCREASE; assay type: in vivo, human
Experimental: as §1
Pulmonary function testing was initially conducted as a safety assessment (Safety Population) during the study. […] As a result, post hoc MMRM analyses of FVC data were performed for the ITT Population and are presented in Table 1 (ITT Population), Table 2 (by PH ILD Etiology of IIP) and Table 3 (for subjects with IPF), shown below.
(§2) The 6-minute walk test was performed and laboratory data were obtained at baseline and at weeks 4, 8, 12, and 16, or at the time of early discontinuation of treprostinil or placebo. Each 6-minute walk test was performed 10 to 60 minutes after the most recent dose of active drug or placebo, which is the time of peak plasma treprostinil exposure. A trough test was performed at week 15 at least 4 hours after the participant received a dose of treprostinil or placebo and at least 24 hours before the week 16 test. Pulse oximetry was performed immediately before, during, and after each 6-minute walk test. Measurement of N-terminal pro-B-type natriuretic peptide (NT-proBNP) levels and pulmonary function tests were performed at baseline and at weeks 8 and 16 (or at early discontinuation) after the patients recovered from the 6-minute walk test. The St. George's Respiratory Questionnaire (SGRQ), a quality-of-life measure, was completed at baseline and week 16 or at the time of early discontinuation.
LS Mean (SE); P-values; estimated difference (SE); and associated 95% CIs are from the mixed model repeated measurement with the change from Baseline in pulmonary function test parameter as the dependent variable; treatment, week, treatment by week interaction as the fixed effects; Baseline measurement as the covariate; and subject as the random effect. An unstructured variance/covariance structure shared across treatment groups was used to model the within-subject errors.

[3] = test system: patients with interstitial lung disease and pulmonary hypertension; experiment: St. George's Respiratory Questionnaire, INCREASE; assay type: in vivo, human
Experimental: as §2
The St. George's Respiratory Questionnaire has a range of results from 0 to 100, with higher scores indicating greater impairment and with a minimum clinically important difference of 4 points.
The changes from baseline in Total Score and each of the 3 domain scores were analyzed by parametric ANCOVA with no imputation for missing data.

[4] = test system: patients with interstitial lung disease and pulmonary hypertension; experiment: Distance saturation product, INCREASE; assay type: in vivo, human
Experimental: Change in distance saturation product is the product of distance walked and lowest SpO2 recorded during the 6-minute walk test.^7 Change from baseline to Week 16 in distance saturation product was analyzed by parametric ANCOVA with no imputation for missing distance saturation product values.

[5] = test system: patients with interstitial lung disease and pulmonary hypertension; experiment: Supplemental oxygen use, INCREASE; assay type: in vivo, human
[6] = test system: patients with interstitial lung disease and pulmonary hypertension; details: human, in vivo, 16 weeks
Excerpt: Safety assessments consisted of the development of AEs, vital signs, clinical laboratory parameters, ECG parameters, hospitalizations due to cardiopulmonary indications, exacerbations of underlying lung disease, and oxygenation.
Safety end points included adverse events, abnormal laboratory results, oxygenation as measured by pulse oximetry (Spo2) and supplemental oxygen requirement, changes in pulmonary function test results, hospitalization for a cardiopulmonary indication, and investigator-reported exacerbations of underlying lung disease, defined as acute, clinically significant respiratory deterioration characterized by evidence of new widespread alveolar abnormality.

[7] = Week 8, subjects with IPF, listed as inhaled treprostinil
[8] = Week 16, subjects with IPF, listed as inhaled treprostinil

For `CCCCC[C@H](O)CC[C@@H]1[C@H]2Cc3cccc(OCC(=O)O)c3C[C@H]2C[C@H]1O` [Inhaled treprostinil, treprostinil], the “patients with exacerbations of underlying lung disease” value ([1]; over the 16-week treatment period) was 26.4%, the “hazard ratio, exacerbation of underlying lung disease” value ([1]; vs placebo, 16 weeks) was 0.66 and the “reduction in risk of an exacerbation of underlying lung disease” value ([1]; vs placebo, 16 weeks) was 34%. For the same compound, the “effect on any pulmonary function test variable during the trial” value ([2]; 16-week trial) was “no deleterious effect”, the “FVC (% predicted), Estimated Difference Inhaled treprostinil - Placebo” value ([2]; Week 8, ITT Population, MMRM) was 1.79 % predicted and the “FVC (% predicted), LS Mean change from baseline” value ([2]; Week 8, ITT Population, MMRM) was 0.77 % predicted. For the same compound, the “FVC (mL), Estimated Difference Inhaled treprostinil - Placebo” value ([2]; Week 8, ITT Population, MMRM) was 28.47 mL, the “FVC (mL), LS Mean change from baseline” value ([2]; Week 8, ITT Population, MMRM) was 5.49 mL and the “DLCO (% predicted), Estimated Difference Inhaled treprostinil − Placebo” value ([2]; Week 8, MMRM) was 1.07 % predicted. For the same compound, the “DLCO (% predicted), LS Mean change from Baseline” value ([2]; Week 8, MMRM) was −0.13 % predicted, the “DLCO (mL/min/mmHg), Estimated Difference Inhaled treprostinil − Placebo” value ([2]; Week 8, MMRM) was 0.19 mL/min/mmHg and the “DLCO (mL/min/mmHg), LS Mean change from Baseline” value ([2]; Week 8, MMRM) was −0.27 mL/min/mmHg. The “FEV1 (% predicted), Estimated Difference Inhaled treprostinil − Placebo” value ([2]; Week 8, MMRM) was 0.57 % predicted, the “FEV1 (% predicted), LS Mean change from Baseline” value ([2]; Week 8, MMRM) was −0.18 % predicted and the “FEV1 (mL), Estimated Difference Inhaled treprostinil − Placebo” value ([2]; Week 8, MMRM) was -8.95 mL. For the same compound, the “FEV1 (mL), LS Mean change from Baseline” value ([2]; Week 8, MMRM) was -21.34 mL, the “TLC (% predicted), Estimated Difference Inhaled treprostinil − Placebo” value ([2]; Week 8, MMRM) was 0.28 % predicted and the “TLC (% predicted), LS Mean change from Baseline” value ([2]; Week 8, MMRM) was −0.05 % predicted. The “TLC (mL), Estimated Difference Inhaled treprostinil − Placebo” value ([2]; Week 8, MMRM) was -16.23 mL, the “TLC (mL), LS Mean change from Baseline” value ([2]; Week 8, MMRM) was -38.75 mL and the “FVC (% predicted), Estimated Difference Inhaled treprostinil - Placebo” value ([2]; Week 8, PH-ILD etiology IIP) was 1.95 % predicted. The “FVC (% predicted), LS Mean change from baseline” value ([2]; Week 8, PH-ILD etiology IIP) was 0.92 % predicted, the “FVC (mL), Estimated Difference Inhaled treprostinil - Placebo” value ([2]; Week 8, PH-ILD etiology IIP) was 46.48 mL and the “FVC (mL), LS Mean change from baseline” value ([2]; Week 8, PH-ILD etiology IIP) was 9.27 mL. The “FVC (% predicted), Estimated Difference Inhaled treprostinil - Placebo” value ([2]; Week 8, subjects with IPF) was 2.543 % predicted, the “FVC (% predicted), LS Mean change from baseline” value ([2]; Week 8, subjects with IPF) was 1.60 % predicted and the “FVC (mL), Estimated Difference Inhaled treprostinil - Placebo” value ([2]; Week 8, subjects with IPF) was 84.522 mL. The “FVC (mL), LS Mean change from baseline” value ([2]; Week 8, subjects with IPF) was 41.69 mL, the “FVC (% predicted), Estimated Difference Inhaled treprostinil - Placebo” value [2, 7] was 2.54 % predicted and the “FVC (mL), Estimated Difference Inhaled treprostinil - Placebo” value [2, 7] was 84.52 mL. The “FVC (% predicted), Estimated Difference Inhaled treprostinil - Placebo” value ([2]; Week 16, ITT Population, MMRM) was 1.80 % predicted, the “FVC (% predicted), LS Mean change from baseline” value ([2]; Week 16, ITT Population, MMRM) was 1.07 % predicted and the “FVC (mL), Estimated Difference Inhaled treprostinil - Placebo” value ([2]; Week 16, ITT Population, MMRM) was 44.40 mL. The “FVC (mL), LS Mean change from baseline” value ([2]; Week 16, ITT Population, MMRM) was 9.77 mL, the “DLCO (% predicted), Estimated Difference Inhaled treprostinil − Placebo” value ([2]; Week 16, MMRM) was 0.60 % predicted and the “DLCO (% predicted), LS Mean change from Baseline” value ([2]; Week 16, MMRM) was −1.14 % predicted. The “DLCO (mL/min/mmHg), Estimated Difference Inhaled treprostinil − Placebo” value ([2]; Week 16, MMRM) was 0.02 mL/min/mmHg, the “DLCO (mL/min/mmHg), LS Mean change from Baseline” value ([2]; Week 16, MMRM) was −0.61 mL/min/mmHg and the “FEV1 (% predicted), Estimated Difference Inhaled treprostinil − Placebo” value ([2]; Week 16, MMRM) was 0.38 % predicted. The “FEV1 (% predicted), LS Mean change from Baseline” value ([2]; Week 16, MMRM) was −0.24 % predicted, the “FEV1 (mL), Estimated Difference Inhaled treprostinil − Placebo” value ([2]; Week 16, MMRM) was -2.56 mL and the “FEV1 (mL), LS Mean change from Baseline” value ([2]; Week 16, MMRM) was -32.18 mL. The “TLC (% predicted), Estimated Difference Inhaled treprostinil − Placebo” value ([2]; Week 16, MMRM) was 1.49 % predicted, the “TLC (% predicted), LS Mean change from Baseline” value ([2]; Week 16, MMRM) was 2.52 % predicted and the “TLC (mL), Estimated Difference Inhaled treprostinil − Placebo” value ([2]; Week 16, MMRM) was 17.37 mL. For the same compound, the “TLC (mL), LS Mean change from Baseline” value ([2]; Week 16, MMRM) was 45.43 mL, the “FVC (% predicted), Estimated Difference Inhaled treprostinil - Placebo” value ([2]; Week 16, PH-ILD etiology IIP) was 2.88 % predicted and the “FVC (% predicted), LS Mean change from baseline” value ([2]; Week 16, PH-ILD etiology IIP) was 1.66 % predicted. For the same compound, the “FVC (mL), Estimated Difference Inhaled treprostinil - Placebo” value ([2]; Week 16, PH-ILD etiology IIP) was 108.18 mL, the “FVC (mL), LS Mean change from baseline” value ([2]; Week 16, PH-ILD etiology IIP) was 22.16 mL and the “FVC (% predicted), median improvement” value ([2]; Week 16, Safety Population) was 1.0%. The “FVC (% predicted), Estimated Difference Inhaled treprostinil - Placebo” value ([2]; Week 16, subjects with IPF) was 3.504 % predicted, the “FVC (% predicted), LS Mean change from baseline” value ([2]; Week 16, subjects with IPF) was 1.62 % predicted and the “FVC (mL), Estimated Difference Inhaled treprostinil - Placebo” value ([2]; Week 16, subjects with IPF) was 168.524 mL. The “FVC (mL), LS Mean change from baseline” value ([2]; Week 16, subjects with IPF) was 38.24 mL, the “FVC (% predicted), Estimated Difference Inhaled treprostinil - Placebo” value [2, 8] was 3.50 % predicted and the “FVC (mL), Estimated Difference Inhaled treprostinil - Placebo” value [2, 8] was 168.52 mL. For the same compound, the “St. George's Respiratory Questionnaire, Change from Baseline, Median” value ([3]; Week 16) was −0.70, the “St. George's Respiratory Questionnaire, Value, Median” value ([3]; Week 16) was 56.30 and the “St. George's Respiratory Questionnaire, Change from Baseline, LS Mean (SE)” value ([3]; Week 16, ANCOVA) was −1.30 (0.87). For the same compound, the “St. George's Respiratory Questionnaire, Change from Baseline, Mean (SD)” value ([3]; Week 16, n 143) was −1.25 (10.99), the “St. George's Respiratory Questionnaire, Value, Mean (SD)” value ([3]; Week 16, n 143) was 55.91 (17.07) and the “St. George's Respiratory Questionnaire, LS Mean Difference” value ([3]; week 16, vs placebo) was −1.18, (1.25) (−3.63, 1.28). For the same compound, the “between-group difference in patient-reported quality of life assessed with the SGRQ” value ([3]; week 16, vs placebo) was “no significant between-group difference”, the “Distance saturation product, Week 16 Change from Baseline, LS Mean (SE)” value ([4]; ANCOVA) was 7.2 (4.5) m % and the “Distance saturation product, Week 16 Change from Baseline, Mean (SD)” value ([4]; n 118) was 7.607 (45.680) m %. The “Distance saturation product, Week 16 Change from Baseline, Median” value ([4]; n 118) was 8.385 m %, the “Distance saturation product, LS Mean Difference (SE)” value ([4]; week 16, vs placebo) was 11.51 (6.5), 95% CI (−1.33, 24.35) m % and the “between-group difference in the distance-saturation product” value ([4]; week 16, vs placebo) was “no significant between-group difference”. The “Supplemental oxygen use During Walk (L/min), Change from Baseline, Median” value ([5]; Baseline During Walk) was 0.0 L/min, the “Supplemental oxygen use During Walk (L/min), Value, Median” value ([5]; Baseline During Walk) was 4.0 L/min and the “Supplemental oxygen use During Walk (L/min), Change from Baseline, Mean (SD)” value ([5]; Baseline During Walk, n 129) was 0.1 (0.8) L/min. The “Supplemental oxygen use During Walk (L/min), Value, Mean (SD)” value ([5]; Baseline During Walk, n 129) was 4.9 (4.0) L/min, the “Supplemental oxygen use Pre-walk (L/min), Change from Baseline, Median” value ([5]; Week 16) was 0.0 L/min and the “Supplemental oxygen use Pre-walk (L/min), Value, Median” value ([5]; Week 16) was 3.0 L/min. For the same compound, the “Supplemental oxygen use Pre-walk (L/min), Change from Baseline, Mean (SD)” value ([5]; Week 16, n 131) was 0.4 (1.4) L/min, the “Supplemental oxygen use Pre-walk (L/min), Value, Mean (SD)” value ([5]; Week 16, n 131) was 3.0 (2.5) L/min and the “treatment-related changes in supplemental oxygen use” value ([5]; over the trial period) was “no significant treatment-related changes”. For the same compound, the “Serious adverse event: Rhinovirus infection” value [6] was 1 n.
